We go through 18 molecules from paper PMC6270091, “GABAB-Agonistic Activity of Certain Baclofen Homologues” (Molecules, 2013).

“Also recorded” adds a separate entry of the source. Counter-ions that a name gives are not always drawn.

Series [1] concerns the target T1, GABABR1b/GABABR2 receptors co-expressed with the chimeric G protein Gαq-z5 in tsA201 cells (Rattus norvegicus, UniProt Q9Z0U4).
T1 construct: expressed in transfected cells; host or cells: tsA201 cells (transformed HEK293), transient transfection with pcDNA3.1 plasmids using SuperFect
Nature of the series: GABAB antagonist test, intracellular calcium (Fluo-4) against 10 μM GABA in transfected tsA201 cells. It is filed as cell-based. Conditions: 1 mM concentration against 10 μM GABA. From the text:
Regarding the structure-activity relationship in the synthesized series 1a–i, it has to be mentioned that mono-substitution on the aromatic moiety attached to the 3-position of the DAVA backbone with a halogen, especially a para-chloro, is optimum for GABABR agonistic activity. The synthesized compounds which evoked GABABR agonistic activity have the following decreasing order of activity: 1a > 1e > 1f.
(§1) TsA201 cells (a transformed human embryonic kidney (HEK) 293 cell line) were maintained at 37 °C in a humidified 5% CO2 incubator in Dulbecco’s modified Eagle medium (DMEM) supplemented with penicillin (100 U/mL), streptomycin (100 mg/mL) and 10% fetal calf serum. One million cells were split into a 10 cm tissue culture plate and transfected the following day with 0.7 μg GABABR1b-pcDNA3.1, 3.5 μg GABABR2-pcDNA3.1 and 0.7μg Gαq-z5-pcDNA using SuperFect as a DNA carrier according to the protocol by the manufacturer (Qiagen, Hilden, Germany). The day after transfection, cells were split into one poly-D-lysine coated 96-well black-walled–clear-bottomed tissue culture plates in the same medium as mentioned above and incubated overnight. The following day the measurement of intracellular calcium was performed as follows. The media was exchanged with Hanks balanced saline solution containing 1 mM CaCl2, 1 mM MgCl2, 20 mM HEPES, 2.5 mM probencid and 4 μM Fluo-4AM (pH = 7.4). The cells were incubated for 1 h at 37 °C in a humidified 5% CO2 incubator. Cells were then washed twice with the same buffer without Fluo-4AM and finally 100 μL of the buffer was left in the wells. The cell plate was then transferred to the NovoStar (BMG Labtechnologies, Offenburg, Germany) and the basal fluorescence level was adjusted to ~10,000 fluorescence units (FU) using excitation/emission wavelengths of 485–520 nm, respectively. Fluorescence readings were measured for 45 s after addition of ligand and response was calculated as peak response minus basal level. […] Twenty min after application of ligand, 10 μM GABA was added to the well and fluorescence was measured as above.
Background: A change in cytosolic calcium serves as a functional read-out for many receptors and channels.

In series [2] the target is T1, GABABR1b/GABABR2 receptors co-expressed with the chimeric G protein Gαq-z5 in tsA201 cells. Nature of the series: GABAB agonist activity, intracellular calcium (Fluo-4) in transfected tsA201 cells. It is filed as cell-based. As to conditions: Ca2+ response; for EC50: agonist, tsA201 cells transfected with GABAB1b/GABAB2/Gqz5; for GABABR agonistic activity (in words): tsA201 cells.
Text: We have previously described a robust pharmacological assay of heterodimeric GABABR1b/GABABR2 receptors co-expressed with the chimeric G protein Gαq-z5 in tsA201 cells (a transformed HEK293 cell line). Co-expression of Gαq-z5 convert the endogenous coupling to the Gαi/o signaling pathway to the Gq pathway, which generally leads to more robust assays measured as increases in inositol phosphates or intracellular calcium levels.
Culture media, serum and antibiotics were obtained from Invitrogen (Paisley, UK). The rat GABABR plasmids and the Gαq-z5 construct were generous gifts from Dr. Janet Clark (National Institute of Health, Bethesda, MD, USA) and Dr. Bruce Conklin (University of California, San Francisco, CA, USA). The tsA201 cells were a generous gift from Dr. Penelope S. V. Jones (University of California, San Diego, CA, USA).
as §1, with “One” for “TsA201 cells (a transformed human embryonic kidney (HEK) 293 cell line) were maintained at 37 °C in a humidified 5% CO2 incubator in Dulbecco’s modified Eagle medium (DMEM) supplemented with penicillin (100 U/mL), streptomycin (100 mg/mL) and 10% fetal calf serum. One”, “The cells were incubated for 1 h at 37 °C in a humidified 5% CO2 incubator.” left out, “The cell plate was then transferred to the NovoStar (BMG Labtechnologies, Offenburg, Germany) and the basal fluorescence level was adjusted to ~10,000 fluorescence units (FU) using excitation/emission wavelengths of 485–520 nm, respectively.” left out
All data analysis has been carried out using GraphPad Prism version 6.0c for Mac OS X (GraphPad Software, San Diego, CA, USA). Concentration-response curves have been fitted by non-linear regression using the equation for sigmoidal concentration-response function:R = Rmin + (Rmax − Rmin)/(1 + 10 ^ (logEC50 − X)) in which X is the logarithm of the agonist concentration, R is the response, Rmax is the maximal response, Rmin is the minimal response and EC50 is the concentration giving half maximum response.

The subject of the next series is GABAB receptors. More on the design: method as in earlier work. As to conditions: cited from earlier work.

T1 sequence (Q9Z0U4 1-844 isoform Q9Z0U4-3): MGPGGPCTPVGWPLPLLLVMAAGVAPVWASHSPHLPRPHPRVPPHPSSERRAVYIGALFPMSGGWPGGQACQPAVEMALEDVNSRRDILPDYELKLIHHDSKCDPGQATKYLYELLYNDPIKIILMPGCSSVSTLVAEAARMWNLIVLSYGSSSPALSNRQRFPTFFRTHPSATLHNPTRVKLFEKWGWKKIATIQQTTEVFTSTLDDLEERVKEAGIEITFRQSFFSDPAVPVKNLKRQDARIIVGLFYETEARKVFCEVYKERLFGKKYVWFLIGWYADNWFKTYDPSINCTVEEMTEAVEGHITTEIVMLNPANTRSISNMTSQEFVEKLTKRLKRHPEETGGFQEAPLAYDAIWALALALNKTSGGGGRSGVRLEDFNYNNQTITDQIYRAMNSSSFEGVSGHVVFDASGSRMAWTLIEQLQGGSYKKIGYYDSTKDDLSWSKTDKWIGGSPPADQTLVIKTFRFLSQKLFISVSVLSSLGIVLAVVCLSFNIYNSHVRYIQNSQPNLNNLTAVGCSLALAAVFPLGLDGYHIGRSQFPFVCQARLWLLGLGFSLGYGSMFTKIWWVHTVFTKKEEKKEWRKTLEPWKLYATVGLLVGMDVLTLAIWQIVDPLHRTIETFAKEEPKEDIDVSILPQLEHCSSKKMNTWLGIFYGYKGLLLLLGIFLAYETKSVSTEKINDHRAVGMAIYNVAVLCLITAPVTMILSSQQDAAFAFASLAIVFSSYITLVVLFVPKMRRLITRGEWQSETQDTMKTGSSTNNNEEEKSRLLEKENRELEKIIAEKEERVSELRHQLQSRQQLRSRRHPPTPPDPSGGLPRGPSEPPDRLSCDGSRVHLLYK
T1 sequence (O88871 41-940 partner): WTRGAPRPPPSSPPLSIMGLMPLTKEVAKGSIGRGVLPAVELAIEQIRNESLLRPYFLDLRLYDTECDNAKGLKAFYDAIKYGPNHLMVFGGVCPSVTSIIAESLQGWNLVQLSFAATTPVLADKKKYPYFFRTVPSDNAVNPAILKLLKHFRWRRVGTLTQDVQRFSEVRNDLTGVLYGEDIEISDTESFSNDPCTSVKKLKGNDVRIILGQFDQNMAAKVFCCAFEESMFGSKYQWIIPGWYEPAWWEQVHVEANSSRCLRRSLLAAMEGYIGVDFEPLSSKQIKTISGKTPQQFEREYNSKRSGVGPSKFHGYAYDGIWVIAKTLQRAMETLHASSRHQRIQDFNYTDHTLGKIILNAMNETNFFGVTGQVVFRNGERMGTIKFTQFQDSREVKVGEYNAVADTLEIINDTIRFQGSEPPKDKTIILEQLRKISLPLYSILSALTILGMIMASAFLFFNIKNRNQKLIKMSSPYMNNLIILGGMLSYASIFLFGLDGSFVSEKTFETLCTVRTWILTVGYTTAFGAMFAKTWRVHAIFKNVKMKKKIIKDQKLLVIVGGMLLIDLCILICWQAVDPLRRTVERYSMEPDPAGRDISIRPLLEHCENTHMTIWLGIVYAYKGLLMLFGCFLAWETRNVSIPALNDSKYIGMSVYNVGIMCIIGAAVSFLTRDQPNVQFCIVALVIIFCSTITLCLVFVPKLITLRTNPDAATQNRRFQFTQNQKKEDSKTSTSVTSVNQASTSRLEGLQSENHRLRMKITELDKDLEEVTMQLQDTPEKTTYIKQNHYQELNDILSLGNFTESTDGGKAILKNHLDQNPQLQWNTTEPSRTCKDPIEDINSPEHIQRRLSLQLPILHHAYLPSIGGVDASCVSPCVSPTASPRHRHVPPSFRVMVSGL

As to `COc1ccc(C(CCN)CC(=O)O)cc1` (racemic) (as salt: hydrochloride) [Compound 1h, (R,S)-5-Amino-3-(4-methoxyphenyl)pentanoic acid hydrochloride], the melting point (as a rule, the temperature, or range, at which the solid turns liquid) is 194 to 195 °C.

On to `NCCC(CC(=O)O)c1ccccc1` (racemic) [Compound 1d, (R,S)-5-Amino-3-phenylpentanoic acid hydrochloride], for which the GABABR antagonist activity result in series [1] is “none of these compounds were effective”. Moreover, the EC50 (commonly the concentration needed to bring the measured effect to its halfway point) in series [2] was over 300 µM. Molecule `NCCC(CC(=O)O)c1ccc(Cl)cc1Cl` (racemic) (as salt: hydrochloride) [Compound 1b, (R,S)-5-Amino-3-(2,4-chlorophenyl)pentanoic acid hydrochloride] registered a melting point of 215 to 217 °C. Turning to `NCCC(CC(=O)O)c1ccc(F)cc1` (racemic) [Compound 1f, (R,S)-5-Amino-3-(4-fluorophenyl)pentanoic acid hydrochloride], the concentration giving a half-maximal response (EC50) in series [2] worked out at 170 µM. Turning to `Cc1ccc(C(CCN)CC(=O)O)cc1` (racemic) [Compound 1c, (R,S)-5-Amino-3-(4-methylphenyl)pentanoic acid hydrochloride], the GABABR antagonist activity result in series [1] is “none of these compounds were effective”. Also, the concentration giving a half-maximal response (EC50) in series [2] is over 300 µM. For `CC(CCN)CC(=O)O` (racemic) [Compound 1i, (R,S)-5-amino-3-methylpentanoic acid], the melting point lay within 164 to 165 °C. The GABABR antagonist activity result in series [1] is “none of these compounds were effective”. Also, in series [2], the “GABABR agonistic activity (in words)” value is “loss of GABABR agonistic activity; also recorded: devoid of GABABR agonistic activity” and the half-maximal effective concentration (EC50) was over 300 µM. Molecule `NCCC(CC(=O)O)c1ccc(Cl)cc1` (racemic) (as salt: hydrochloride) [Compound 1a, (R,S)-5-Amino-3-(4-chlorophenyl)pentanoic acid hydrochloride] returned a melting point of 201 to 203 °C. In the case of `COc1cccc(C(CCN)CC(=O)O)c1` (racemic) [Compound 1g, (R,S)-5-Amino-3-(3-methoxyphenyl)pentanoic acid hydrochloride], the GABABR antagonist activity entry in series [1] is reported as “none of these compounds were effective”. For the same molecule, the concentration for a half-maximal effect (EC50) in series [2] was over 300 µM. The corresponding values for `COc1ccc(C(CCN)CC(=O)O)cc1` (racemic) [Compound 1h, (R,S)-5-Amino-3-(4-methoxyphenyl)pentanoic acid hydrochloride] are “none of these compounds were effective” and over 300 µM. In turn, `COc1cccc(C(CCN)CC(=O)O)c1` (racemic) (as salt: hydrochloride) [Compound 1g, (R,S)-5-Amino-3-(3-methoxyphenyl)pentanoic acid hydrochloride] showed a melting point of 182 to 184 °C.

Molecule `NCCC(CC(=O)O)c1ccc(Cl)c(Cl)c1` (racemic) (as salt: hydrochloride) [Compound 1e, (R,S)-5-Amino-3-(3,4-chlorophenyl)pentanoic acid hydrochloride] showed a melting point of 201 to 203 °C. On to `NCCC(CC(=O)O)c1ccc(Cl)c(Cl)c1` (racemic) [Compound 1e, (R,S)-5-Amino-3-(3,4-chlorophenyl)pentanoic acid hydrochloride], for which the 50% effective concentration (EC50) in series [2] amounted to 130 µM. For `NCCC(CC(=O)O)c1ccccc1` (racemic) (as salt: hydrochloride) [Compound 1d, (R,S)-5-Amino-3-phenylpentanoic acid hydrochloride], the melting point lay in the range of 195 to 196 °C. On the same count and under the same terms, under `NCCC(CC(=O)O)c1ccc(F)cc1` (racemic) (as salt: hydrochloride) [Compound 1f, (R,S)-5-Amino-3-(4-fluorophenyl)pentanoic acid hydrochloride] stands 208 to 210 °C.

Regarding `NCCC(CC(=O)O)c1ccc(Cl)cc1` (racemic) [Compound 1a, (R,S)-5-Amino-3-(4-chlorophenyl)pentanoic acid hydrochloride], the EC50 in series [2] was 46 µM.

Consider `NCCC(CC(=O)O)c1ccc(Cl)cc1Cl` (racemic) [Compound 1b, (R,S)-5-Amino-3-(2,4-chlorophenyl)pentanoic acid hydrochloride], for which, in series [1], the GABABR antagonist activity entry is “none of these compounds were effective”. Further, in series [2], the “GABABR agonistic activity (in words)” value was “lack of GABABR agonistic activity” and the EC50 was over 300 µM.

Molecule `Cc1ccc(C(CCN)CC(=O)O)cc1` (racemic) (as salt: hydrochloride) [Compound 1c, (R,S)-5-Amino-3-(4-methylphenyl)pentanoic acid hydrochloride] yielded a melting point of 204 to 206 °C.

As for `NCCCC(C(=O)O)c1ccc(Cl)cc1` (racemic) [Compound 3, (R,S)-5-amino-2-(4-chlorophenyl)pentanoic acid], the “interaction with GABAB receptors” value in the series with GABAB receptors was “does not interact detectably”.
